Reference: patent US20260242320A1, “USE OF CANNABIDIOL DERIVATIVE IN PREPARATION OF MEDICAMENT” (priority 2023, published 2026)
Entries after “also recorded” stand apart in the source; their conditions may differ.

Columns and labels:
[1] = tested on: microglial activation marker Iba1; experiment: Iba1 immunofluorescence staining of brain sections; type: in vivo, mice; conditions: chronic morphine
Protocol: Mice were anesthetized with tribromoethanol following the CPP assay and intracardially perfused with 8 mL saline; the brains were then stripped out and embedded in paraffin. The brain was sectioned coronally at 5 μm thickness on a vibrating microtome. Paraffin-processed tissues were deparaffinized in xylene and rehydrated with a graded alcohol solution. The sections were placed in 0.01 M citrate buffer (pH 6.0) and heated in a microwave oven for hot antigen repair. These sections were incubated with goat serum for 20 min at 37° C. and then with rabbit anti-Iba1 monoclonal antibody at 4° C. overnight. After three washes with PBS, the sections were incubated with an Alexa-488-conjugated secondary antibody for 1 h in the dark. Ultimately, followed by three washes with PBS twice for 5 min each, the sections were counterstained with DAPI and examined under a confocal microscope

[2] = tested on: LPS-induced proinflammatory factor nitric oxide (NO) in immunocompetent BV-2 cells; experiment: NO assay: inhibition of LPS-induced NO overproduction in BV-2 cells; type: cell-based; conditions: Mus musculus; BV-2 cells, LPS 200 ng/mL, 24 h; read-out: Antineuroinflammatory activity (IC50 inhibiting LPS-induced NO)
Protocol: BV-2 cells were seeded at a density of 5×10^4 cells per milliliter in 96-well plates. After 24 h incubation, the media was removed and changed to DMEM without FBS and penicillin-streptomycin. LPS (200 ng/mL) and different concentrations of compounds were added. After 24 h treatment, 100 μL of media was transferred to flat black 96-well micro fluor plates, and then, 10 μL of 0.05 mg/mL 2,3-diaminonaphthalene was added and incubated in the dark for 15 min. 5 μL of NaOH (3 M) was subsequently added to each well to quench the reaction. NO inhibition ratio was analyzed by a SYNERGY H1 Microplate Reader (BioTek Instruments, Carlsbad, CA, USA) with excitation at 360 nm and emission at 430 nm. The fluorescence value of the LPS-treated group was set as 100%.

[3] = tested on: LPS-induced IL-1β, TNF-α, IL-6, iNOS, IL-10 mRNA in BV-2 cells; experiment: qRT-PCR of proinflammatory and M1/M2 marker mRNAs in LPS-treated BV-2 cells; type: cell-based
Protocol: Total RNA was extracted from cells or mouse brains using the RNeasy Mini Kit. Isolated RNA was reverse-transcribed into cDNA using an RT2 Easy First Strand cDNA Synthesis Kit following the manufacturer's protocols. PCR amplification was conducted using synthetic primers, SYBR Green, and a TOptical Real-Time qPCR Thermal Cycler (Analytik Jena, Thuringia, Germany). The data were analyzed by the […] method, and Rpl711 or Rpl27 was used as an internal control.

PKM2 tetramer / monomer = target: T1, PKM2 tetramer / monomer (Mus musculus, UniProt P52480); experiment: Western blot of PKM2 tetramer and monomer in LPS-treated cells; type: cell-based
T1 construct: endogenous in cells; host or cells: BV-2 cells
T1 sequence (P52480 whole entry): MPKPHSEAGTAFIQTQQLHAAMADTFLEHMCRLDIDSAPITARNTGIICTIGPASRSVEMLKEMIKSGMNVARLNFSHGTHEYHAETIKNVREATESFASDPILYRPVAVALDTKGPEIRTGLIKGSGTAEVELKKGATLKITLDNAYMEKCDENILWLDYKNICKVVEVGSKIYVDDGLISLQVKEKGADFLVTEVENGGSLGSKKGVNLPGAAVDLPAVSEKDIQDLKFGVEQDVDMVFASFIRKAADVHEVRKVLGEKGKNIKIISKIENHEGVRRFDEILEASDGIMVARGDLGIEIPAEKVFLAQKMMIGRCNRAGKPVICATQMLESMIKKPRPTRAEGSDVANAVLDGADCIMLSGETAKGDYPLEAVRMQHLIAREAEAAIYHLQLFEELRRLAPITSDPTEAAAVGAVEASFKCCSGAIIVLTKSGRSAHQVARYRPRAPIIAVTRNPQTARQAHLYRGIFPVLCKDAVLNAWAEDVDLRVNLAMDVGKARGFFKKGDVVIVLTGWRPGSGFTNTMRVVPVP
Excerpt: ImageJ was used for densitometric analysis.

[4] = target: T2, nuclear PKM2 in BV-2 cells (Mus musculus, UniProt P52480); experiment: Subcellular localization of PKM2; type: cell-based; conditions: BV-2, LPS 200 ng/mL, 10 μM, 6 h
T2 construct: endogenous in cells; host or cells: BV-2 cells
T2 sequence (P52480 whole entry): as above
Protocol: BV-2 cells were treated with 200 ng/mL LPS and 10 μM CIAC001 for 6 h. Cells were washed, harvested with ice-cold PBS, and centrifuged at 800 g for 5 min at 4° C. Cells were lysed in cytoplasmic lysis buffer (10 mM HEPES pH 7.6, 10 mM KCl, 0.5 mM […], 1.5 mM MgCl2, and 1 mM DTT) plus the protease inhibitor cocktail for 20 min on ice. A final concentration of 0.5% NP40 was added to the lysate and incubated for 2 min on ice. Lysates were centrifuged at 2000 g for 10 min at 4° C., and the supernatants were cytoplasmic lysates. Pellets were washed twice with ice-cold PBS. Nuclear pellets were lysed for 30 min on ice with nuclear lysis buffer (10 mM Tris-HCl pH 7.6, 450 mM NaCl, 2 mM MgCl2, 0.5% NP-40, and 1 mM DTT) plus a protease inhibitor cocktail. Lysates were centrifuged at 12,000 g for 10 min at 4° C., and the supernatants were nuclear lysates. The nuclear lysates were diluted with low-salt buffer (10 mM Tris-HCl pH 7.6 and 2 mM MgCl2) to a final salt concentration of 150 mM in the lysates. The total protein concentrations in the nuclear and cytoplasmic extracts were determined by the BCA assay and then normalized. The lysate supernatants were denatured in 2× Laemmli sample buffer at 100° C. for 8 min for western blotting with the corresponding antibody.

CB1 Receptor = target: T3, CB1 Receptor (Homo sapiens, UniProt P21554); experiment: cAMP measurement, forskolin-induced cAMP accumulation, CB1; type: cell-based; conditions: cAMP assay
T3 construct: expressed in transfected cells; host or cells: GloSensor 22-F HEK293 cells
T3 sequence (P21554 whole entry): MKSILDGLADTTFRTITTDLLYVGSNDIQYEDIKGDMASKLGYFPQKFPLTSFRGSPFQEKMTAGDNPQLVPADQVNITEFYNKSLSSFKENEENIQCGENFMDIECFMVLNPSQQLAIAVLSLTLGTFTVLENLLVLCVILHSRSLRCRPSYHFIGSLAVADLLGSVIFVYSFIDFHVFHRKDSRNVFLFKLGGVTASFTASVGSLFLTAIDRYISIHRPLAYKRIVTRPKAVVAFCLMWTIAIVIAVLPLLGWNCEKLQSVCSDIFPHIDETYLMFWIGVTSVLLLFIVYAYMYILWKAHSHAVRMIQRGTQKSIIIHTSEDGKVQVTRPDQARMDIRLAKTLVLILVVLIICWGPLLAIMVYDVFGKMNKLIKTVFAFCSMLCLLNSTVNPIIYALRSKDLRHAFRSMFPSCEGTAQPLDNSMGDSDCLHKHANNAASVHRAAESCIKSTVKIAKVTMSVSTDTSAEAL
Protocol: GloSensor 22-F HEK293 cells were transfected with plasmids encoding different receptors (CB1 and CB2). After 24 h, HEK293 cells were seeded at a density of 5×10^4 cells per well in 96-well plates and incubated for 8 h; then, the medium was removed, and 200 μL of serum-free DMEM medium containing 2% GloSensor cAMP substrate (Promega) was added. After 2 h incubation, the transfected cells were stimulated with different concentrations of ligands together with […]. The luminescence was recorded using a Multimode Plate Reader (En Vision, PerkinElmer).

lactate in BV-2 culture = experiment: Extracellular lactic acid assay; type: cell-based; conditions: BV-2, 10 μM, LPS 200 ng/mL, 12 h
Protocol: BV-2 cells were seeded at a density of 5×10^5 cells per well in 6-well plates and incubated for 24 h. BV-2 cells were treated with 10 μM CIAC001 or 10 μM Compound 19b in the absence or presence of 200 ng/mL LPS for 12 h. Culture medium was collected and centrifuged (5000 g, 4° C.) for 5 min. The supernates were used for lactic acid contents determination by lactic acid assay kit (A019-2-1, Nanjing Jiancheng Bioengineering Institute).

[5] = Pharmacokinetic profiles in brain and plasma after oral administration; type: in vivo, mice
Protocol: Following administration, mice (BALB/c, male, 20-25 g) were sacrificed at 0.5, 1, 2, 3, and 4 h. The blood and brain tissue were collected and extracted with acetonitrile.

[6] = LPS-treated cells, mRNA by qPCR

SMILES: C=C(C)[C@@H]1CCC(C)=C[C@H]1c1c(O)cc(C(C)n2nccn2)cc1O (stereo partly drawn) [CIAC001, (1′R,2′R)-4-(1-(2H-1,2,3-Triazol-2-yl)ethyl)-5′-methyl-2′-(prop-1-en-2-yl)-1′,2′,3′,4′-tetrahydro-[1,1′-biphenyl]-2,6-diol]
- expression of Iba1 in the mPFC [1]: decreased the expression of Iba1
- IC50 [2]: 2500 ± 700 nM
- LPS-induced overexpression of IL-1β mRNA ([3]; BV-2 cells): concentration-dependently inhibited
- LPS-induced overexpression of IL-6 mRNA ([3]; BV-2 cells): concentration-dependently inhibited
- LPS-induced overexpression of TNF-α mRNA ([3]; BV-2 cells): concentration-dependently inhibited
- expression of M1 phenotype markers IL-1β and iNOS [3, 6]: inhibited LPS-induced increased expression
- expression of M2 phenotype marker IL-10 [3, 6]: attenuated LPS-induced decreased expression
- LPS-induced decline of the PKM2 tetramer (PKM2 tetramer / monomer): reversed the LPS-induced decline of the PKM2 tetramer
- LPS-induced rise of the PKM2 monomer (PKM2 tetramer / monomer): inhibit the LPS-induced rise of the PKM2 monomer; also recorded: inhibited LPS-induced rise of the PKM2 monomer
- LPS-induced translocation of nuclear PKM2 [4]: completely reversed; also recorded: inhibited LPS-induced translocation of nuclear PKM2
- CB1 receptor activity (CB1 Receptor): no apparent CB1/CB2 activity
- LPS-induced lactate release (lactate in BV-2 culture): significantly inhibited
- AUC0→t ([5]; brain, 10 mg/kg p.o., mice): 172.8 ng·h/g
- AUC0→∞ ([5]; brain, 10 mg/kg p.o., mice): 191.3 ng·h/g
- MRT ([5]; brain, 10 mg/kg p.o., mice): 54 min
- brain Cmax ([5]; brain, 10 mg/kg p.o., mice): 175.0 ng/g
- t1/2 ([5]; brain, 10 mg/kg p.o., mice): 48 min
- Kp ([5]; male, BALB/c, mouse, brain / plasma, oral, 10 mg/kg p.o., read-out: B/P ratios within the first 3 h after administration): > 2
- Kp at 0.5 h ([5]; male, BALB/c, mouse, brain / plasma, po, 0.5 h, 10 mg/kg p.o., read-out: B/P ratio): 3.31 ± 0.382
- Kp at 1 h ([5]; male, BALB/c, mouse, brain / plasma, po, 1 h, 10 mg/kg p.o., read-out: B/P ratio): 3.63 ± 0.425
- Kp at 2 h ([5]; male, BALB/c, mouse, brain / plasma, po, 2 h, 10 mg/kg p.o., read-out: B/P ratio): 4.12 ± 1.44
- Kp at 3 h ([5]; male, BALB/c, mouse, brain / plasma, po, 3 h, 10 mg/kg p.o., read-out: B/P ratio): 5.76 ± 1.34
- Tmax ([5]; male, BALB/c, mouse, po, brain, 10 mg/kg p.o., mice, read-out: Tmax): 18 min
- BBB permeability and CNS pharmacokinetics compared to CBD ([5]; oral administration): better BBB permeability and CNS pharmacokinetics
- brain Cmax relative to CBD ([5]; vs CBD, 10 mg/kg p.o.): approximately 2 times
